# Assay results from patent US9522151B2, “Dosing regimen for Janus Kinase (JAK) inhibitors” (priority 2012, dated 2016).
# Values joined by “and” are separate entries in the source; they are usually repeats but may differ in a detail not shown here. Equal values may be shown once. Read-outs that look alike come from different tables or passages of the source.
# Assays:
# [1] = test system: client owned dogs with a history of chronic atopic dermatitis; test: Study in client owned dogs with chronic atopic dermatitis (Table 1); format: in vivo, dog; conditions: 0.19-0.39 mg/kg BID oral for 28 days; Day 1, 14 and 28
# Procedure: A study was conducted in client owned dogs. Fifty-six dogs, greater than 1 year of age, weighing 2-50 kg, with a history of chronic atopic dermatitis were enrolled at three veterinary schools. The study design is illustrated in the following Table 1: […]
# [2] = test system: dogs with moderate to severe itching (pruritus); test: Pruritus Study A (placebo controlled); format: in vivo, dog
# Excerpt: (§1) Investigators attributed pruritus to one or more of the following: allergic dermatitis, atopic dermatitis, food allergy, contact allergy, flea allergy, sarcoptic mange. Dogs were six months of age or older, weighed a minimum of 3 kg and were physically healthy apart from their pruritic condition. Dogs were flea-free, and appropriate preventatives and treatments were used throughout the studies. The studies were designed as follows in Table 2 and Table 3.
# [3] = test system: dogs with moderate to severe itching (pruritus); test: Pruritus Study B (prednisolone controlled); format: in vivo, dog; conditions: day 14; oral BID for 14 days (prednisolone 0.25-0.5 mg/kg, compound 1 0.4-0.6 mg/kg); time zero about 75 mm
# Excerpt: as §1
# [4] = test system: client-owned dogs with chronic non-seasonal atopic dermatitis; format: in vivo; conditions: 0.4-0.6 mg/kg BID oral
# Excerpt: (§2) Minimum CADESI scores were assigned by a dermatologist or veterinarian (CADESI-01 score of 25 or CADESI-3 score of 60). Dogs were either 1 year of age or 6 months of age or older and weighed a minimum of 3 kg and were physically healthy apart from their atopic disease. The dogs had at least a 1 year or 6 month documented history of chronic non-seasonal atopic dermatitis. The dogs were flea free and appropriate preventatives and treatments were used throughout the study.
# In these studies, animals were administered from 0.4-0.6 mg/kg body weight of a JAK inhibitor BID for up to 112 days.
# [5] = test system: laboratory dogs; test: High dose BID safety study in 6 month old laboratory dogs; format: in vivo, dog
# Procedure: A high dose (3 mg/kg BID) was given to 6 month old laboratory dogs.
# [6] = test system: dogs with chronic non-seasonal atopic dermatitis; test: Atopic Dermatitis Dose Selection Study; format: in vivo, dog; conditions: oral
# Excerpt: as §2
# [7] = test system: laboratory-bred dogs
# Procedure: A target animal safety program (8 studies) was conducted. 131 laboratory-bred dogs were exposed to N-methyl-1-{trans-4-[methyl(7H-pyrrolo[2,3-d]pyrimidin-4-yl)amino]cyclohexyl}methanesulfonamide maleate (i.e. N-methyl-1-{trans-4-[methyl(7H-pyrrolo[2,3-d]pyrimidin-4-yl)amino]cyclohexyl}methanesulfonamide maleic acid salt maleic acid salt). Doses ranged from 0.5 mg/kg/day (0.25 mg/kg BID) to 18 mg/kg/day (9 mg/kg BID). Duration of exposure ranged from 10 days to 6 months. Recovery periods were incorporated into two studies. A series of early studies were designed to ensure the safety of client-owned dogs in the field safety and efficacy studies.
# In a “margin of safety” study, the following treatments were given: […]
# [8] = dog, in vivo
# Procedure: All doses are expressed in terms of mg/kg of free base. Serial blood samples for determination of pharmacokinetics were collected following Compound 1 administration. Blood samples at 0, 1, 4, 8, and 12 hours post dose were collected via jugular venipuncture into K2EDTA tubes and placed on ice until centrifuged. Harvested plasma was stored at approximately −20° C. until analysis.
# Thirty-two beagle dogs (16 female, 16 male) were allocated to four treatment groups. Dogs in Treatment 1 received placebo capsule (0 mg/kg) orally. […] All dogs received a twice daily doses 0, 0.6, 1.8, and 3.0 mg/kg for weeks 1 through 6 and a single daily doses of 0, 0.6, 1.8, and 3.0 mg/kg for weeks 7 through 26. On pharmacokinetic sample collection days, dogs were fasted the previous night and fed four hours post dose administration. To calculate AUC0-24 for study days 53 and 168, steady-state was assumed and the 24 hour concentration was assumed to be equal to the 0 hour concentration, and used for the 0 hour concentration. As the actual doses of Compound 1 varied from the group target doses, the pharmacokinetic variables AUC0-τ, (AUC of the dosing interval), Cmax, and Cτ (trough concentration) were all normalized to the group target dose.
# [9] = in vitro; conditions: human, Caco-2
# Excerpt: The in vitro permeability of Compound 1 was experimentally determined in a Caco-2 cell monolayer study. […] The dog gastric pH has been reported to range from 1.08 to 2.0 (Sagawa, Li et al. 2009; Mahar, Portelli et al. 2012).
# [10] = test system: cytokine receptors that share the common gamma chain (e.g. IL-2R, IL-4R); test: Inhibition of cytokine function, common gamma chain receptors; format: cell-based; conditions: read-out: IC50's of representative family members
# [11] = test system: JAK-1 dependent cytokines (e.g. IL-2, IL-4, IL-6, IL-13, and IL-31); test: Inhibition of JAK-1 dependent cytokines; format: cell-based
# [12] = test system: cytokines that are exclusively dependent on JAK2 function (EPO, GM-CSF); test: Inhibition of cytokines exclusively dependent on JAK2; format: cell-based; conditions: ratio of IC50's
# [13] = test system: IL-12 and IL-23; test: Inhibition of cytokines that utilize JAK2/TYK2 and not JAK1; format: cell-based
# [14] = test system: cytokine receptors that share the gp130 subunit (e.g. IL-6) as well as IL-13; test: Inhibition of gp130 subunit cytokine receptors and IL-13; format: cell-based
# [15] = test system: the IL-10 family, the IL-12 family (that share the p40 subunit), or the IL-3 family; test: Inhibition of IL-10, IL-12 and IL-3 family cytokines; format: cell-based
# [16] = dog, in vivo; remark: listed apart in the source
# [17] = pH 5.5
# [18] = physchem; conditions: pH 3.8
# [19] = Other pharmacokinetic studies in dogs (IV and PO); conditions: for bioavailability: po
structure (smiles),measurement,setting,value
"CNS(=O)(=O)C[C@H]1CC[C@H](N(C)c2ncnc3[nH]ccc23)CC1.O=C(O)/C=C\C(=O)O [Compound 1, N-methyl-1-{trans-4-[methyl(7H-pyrrolo[2,3-d]pyrimidin-4-yl)amino]cyclohexyl}methanesulfonamide maleate]",reduction in owner assessed VAS pruritus scores compared with placebo,[1],significantly (p≦0.07) different
same,owner VAS scores by day compared to placebo (T01),[2]; 0.4-0.6 mg/kg BID oral for 7 days,lower each day starting on day 1
same,LS mean owner VAS score,"[2]; day 7, 0.4-0.6 mg/kg BID oral, time zero about 75 mm, placebo about 55 mm",about 25 mm
same,LS mean owner VAS score,[3],about 18 mm
same,efficacy for the control of atopic dermatitis including pruritus,[4],excellent efficacy
same,effects observed,[5]; 0.6 mg/kg BID group,few effects
same,dogs with clinical signs of integument (demodex),"[5]; 3 mg/kg BID, 6 month old laboratory dogs",7/8
same,"Investigator CADESI score over 112 days, order of treatment groups from highest to lowest",[6],"T01 (placebo), T04 (0.2-0.3 mg/kg SID compound 1), T03 (0.4-0.6 mg/kg SID compound 1), and T02 (0.4-0.6 mg/kg BID for 14 days followed by 0.4-0.6 mg/kg SID thereafter)"
same,significant decreases in red blood cell parameters outside normal laboratory reference ranges,[7]; 0.6 mg/kg dose,not detected
same,deaths or other serious adverse events,"[7]; 0.6, 1.8 or 3.0 mg/kg oral, BID weeks 1-6 then SID weeks 7-26",no observed deaths or other serious adverse events
same,increase in mean AUC0-12 from Day 0 to Day 21,"[8]; both, beagle, po",40%
same,male/female differences in pharmacokinetic parameters,[8],there did not appear to be any systematic male/female differences
same,increase in AUC0-12 and Cmax with dose,"[8]; po, 3 mg/kg",dose proportional from 0.6 to 3.0 mg/kg
same,Papp,[9],40.4 ×10⁻⁶ cm/s
same,IC50,[10],63 nM to 249 nM and 0.021 µg/mL to 0.084 µg/mL
same,IC50,[11],< 249 nM and < 0.084 µg/mL
same,"fold less potent than the JAK1-dependent cytokines (IL-2, 4, 6, 13, and 31)",[12],4-17 fold
same,IC50,[13],> 3000 nM
same,inhibition of cytokine receptor function,[14],inhibits the function
same,inhibition of cytokines,[15],it does not appear that compound 1 inhibits
same,impact of breed on pharmacokinetic profile,[16],breed does not impact the pharmacokinetic profile
same,solubility,[17],practically insoluble
same,solubility,[18],10.4 mg/mL
same,calculated fraction absorbed,"[19]; based on bioavailability 85%, clearance 4 mL/min/kg, blood flow 40 mL/min/kg",greater than 0.9
same,half-life,"[19]; dog, plasma",4 h
same,clearance,"[19]; dog, plasma, intravenous",4 mL/min/kg
same,bioavailability,"[19]; dog, plasma, absolute oral bioavailability, mean range, dogs",79 to 89%
same,bioavailability,"[19]; dog, plasma, bioavailability, value used to calculate fraction absorbed",85%
same,volume of distribution,[19]; dogs,moderate volume of distribution
same,time of mean maximum plasma concentrations post dose,"[19]; oral administration, dogs",approximately 1 hour
"C[C@]12C=CC(=O)C=C1CC[C@@H]1[C@@H]2[C@@H](O)C[C@@]2(C)[C@H]1CC[C@]2(O)C(=O)CO [prednisolone, Prednisolone, reference compound]",LS mean owner VAS score,[3],about 10 mm
